Measurements reported in patent US12077503B2, “Substituted cyclic amides and their use as herbicides” (FMC CORPORATION, priority 2015, dated 2024).

Tests used:
Type in all cases: in vivo
[1] = tested on: giant foxtail (Setaria faberii); test: Test A postemergence; conditions: Setaria faberi, post-emergence, 240 h, Postemergence
In short: (§1)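 Compounds were formulated in a non-phytotoxic solvent mixture with surfactant and applied as a preemergence directed soil spray after seeding, or sprayed postemergence over plants 2 to 10 cm tall at the one- to two-leaf stage. Evaluation after about 10 d compared treated with untreated controls, using a scale from 0 (no effect) to 100 (complete control).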

[2] = tested on: barnyardgrass (Echinochloa crus-galli); test: Test A postemergence; conditions: Echinochloa crus-galli, post-emergence, 240 h, Postemergence
In short: as §1

[3] = tested on: ragweed (common ragweed, Ambrosia elatior); test: Test A postemergence; conditions: Ambrosia artemisiifolia, post-emergence, 240 h, Postemergence
In short: as §1

[4] = tested on: blackgrass (Alopecurus myosuroides); test: Test A postemergence; conditions: Alopecurus myosuroides, post-emergence, 240 h, Postemergence
In short: as §1

[5] = tested on: Kochia (Kochia scoparia); test: Test A postemergence; conditions: Bassia scoparia, post-emergence, 240 h, Postemergence
In short: as §1

[6] = tested on: corn (Zea mays); test: Test A postemergence; conditions: Zea mays, post-emergence, 240 h, Postemergence
In short: as §1

[7] = tested on: Galium (catchweed bedstraw, Galium aparine); test: Test A postemergence; conditions: Galium, post-emergence, 240 h, Postemergence
In short: as §1

[8] = tested on: wheat (Triticum aestivum); test: Test A postemergence; conditions: Triticum aestivum, post-emergence, 240 h, Postemergence
In short: as §1

[9] = tested on: pigweed (Amaranthus retroflexus); test: Test A postemergence; conditions: Amaranthus retroflexus, post-emergence, 240 h, Postemergence
In short: as §1

[10] = tested on: ryegrass, Italian (Italian ryegrass, Lolium multiflorum); test: Test A postemergence; conditions: Lolium multiflorum, post-emergence, 240 h, Postemergence
In short: as §1

[11] = tested on: giant foxtail (Setaria faberii); test: Test A preemergence; conditions: Setaria faberi, pre-emergence, 240 h, preemergence, 0 to 100 scale where 0 is no effect and 100 is complete control, read-out: Foxtail, Giant plant response rating
In short: as §1

[12] = tested on: barnyardgrass (Echinochloa crus-galli); test: Test A preemergence; conditions: Echinochloa crus-galli, pre-emergence, 240 h, preemergence, 0 to 100 scale where 0 is no effect and 100 is complete control, read-out: Barnyardgrass plant response rating
In short: as §1

[13] = tested on: ragweed (common ragweed, Ambrosia elatior); test: Test A preemergence; conditions: Ambrosia artemisiifolia, pre-emergence, 240 h, preemergence, 0 to 100 scale where 0 is no effect and 100 is complete control, read-out: Ragweed plant response rating
In short: as §1

[14] = tested on: Kochia (Kochia scoparia); test: Test A preemergence; conditions: Bassia scoparia, pre-emergence, 240 h, preemergence, 0 to 100 scale where 0 is no effect and 100 is complete control, read-out: Kochia plant response rating
In short: as §1

[15] = tested on: pigweed (Amaranthus retroflexus); test: Test A preemergence; conditions: Amaranthus retroflexus, pre-emergence, 240 h, preemergence, 0 to 100 scale where 0 is no effect and 100 is complete control, read-out: Pigweed plant response rating
[16] = tested on: ryegrass, Italian (Italian ryegrass, Lolium multiflorum); test: Test A preemergence; conditions: Lolium multiflorum, pre-emergence, 240 h, preemergence, 0 to 100 scale where 0 is no effect and 100 is complete control, read-out: Ryegrass, Italian plant response rating
In short: as §1

[17] = 125 g ai/ha, visual injury rating, approximately 10 d

## Cc1nc([C@H]2CN(C)C(=O)[C@@H]2C(=O)Nc2ccccc2F)cs1 [Compound 1280]
[1]; 125 g ai/ha, visual rating about 10 d after treatment, read-out: Foxtail, Giant plant response rating (0 to 100 scale)
  pest or weed control at 125 g/ha: 0%
[1]; 500 g ai/ha, visual injury, 0 to 100 scale (0 no effect, 100 complete control), approx. 10 d, read-out: Plant response rating, Foxtail, Giant
  pest or weed control at 500 g/ha: 30%
[2]; 125 g ai/ha, visual rating about 10 d after treatment, read-out: Barnyardgrass plant response rating (0 to 100 scale, 0 no effect, 100 complete control)
  pest or weed control at 125 g/ha: 0%
[2]; 500 g ai/ha, visual injury, 0 to 100 scale (0 no effect, 100 complete control), approx. 10 d, read-out: Plant response rating, Barnyardgrass
  pest or weed control at 500 g/ha: 40%
[3]; 125 g ai/ha, visual rating about 10 d after treatment, read-out: Ragweed plant response rating (0 to 100 scale)
  pest or weed control at 125 g/ha: 0%
[3]; 500 g ai/ha, visual injury, 0 to 100 scale (0 no effect, 100 complete control), approx. 10 d, read-out: Plant response rating, Ragweed
  pest or weed control at 500 g/ha: 0%
[4]; 125 g ai/ha, visual rating about 10 d after treatment, read-out: Blackgrass plant response rating (0 to 100 scale)
  pest or weed control at 125 g/ha: 0%
[4]; 500 g ai/ha, visual injury, 0 to 100 scale (0 no effect, 100 complete control), approx. 10 d, read-out: Plant response rating, Blackgrass
  pest or weed control at 500 g/ha: 0%
[5]; 125 g ai/ha, visual rating about 10 d after treatment, read-out: Kochia plant response rating (0 to 100 scale)
  pest or weed control at 125 g/ha: 0%
[5]; 500 g ai/ha, visual injury, 0 to 100 scale (0 no effect, 100 complete control), approx. 10 d, read-out: Plant response rating, Kochia
  pest or weed control at 500 g/ha: 0%
[6]; 125 g ai/ha, visual rating about 10 d after treatment, read-out: Corn plant response rating (0 to 100 scale)
  plant injury at 125 g/ha: 0%
[6]; 500 g ai/ha, visual injury, 0 to 100 scale (0 no effect, 100 complete control), approx. 10 d
  Corn plant response rating (crop injury, 0 = no effect, 100 = complete kill) at 500 g/ha: 0%
[7]; 125 g ai/ha, visual rating about 10 d after treatment, read-out: Galium plant response rating (0 to 100 scale)
  pest or weed control at 125 g/ha: 0%
[7]; 500 g ai/ha, visual injury, 0 to 100 scale (0 no effect, 100 complete control), approx. 10 d, read-out: Plant response rating, Galium
  pest or weed control at 500 g/ha: 0%
[8]; 125 g ai/ha, visual rating about 10 d after treatment, read-out: Wheat plant response rating (0 to 100 scale)
  plant injury at 125 g/ha: 0%
[8]; 500 g ai/ha, visual injury, 0 to 100 scale (0 no effect, 100 complete control), approx. 10 d, read-out: Plant response rating, Wheat
  plant injury at 500 g/ha: 0%
[9]; 125 g ai/ha, visual rating about 10 d after treatment, read-out: Pigweed plant response rating (0 to 100 scale)
  pest or weed control at 125 g/ha: 0%
[9]; 500 g ai/ha, visual injury, 0 to 100 scale (0 no effect, 100 complete control), approx. 10 d, read-out: Plant response rating, Pigweed
  pest or weed control at 500 g/ha: 0%
[10]; 125 g ai/ha, visual rating about 10 d after treatment, read-out: Ryegrass, Italian plant response rating (0 to 100 scale)
  pest or weed control at 125 g/ha: 0%
[10]; 500 g ai/ha, visual injury, 0 to 100 scale (0 no effect, 100 complete control), approx. 10 d, read-out: Plant response rating, Ryegrass, Italian
  pest or weed control at 500 g/ha: 0%
[11]; [17]
  pest or weed control at 125 g/ha: 0%
[11]; 500 g ai/ha
  pest or weed control at 500 g/ha: 80%
[12]; [17]
  pest or weed control at 125 g/ha: 0%
[12]; 500 g ai/ha
  pest or weed control at 500 g/ha: 50%
[13]; [17]
  pest or weed control at 125 g/ha: 0%
[13]; 500 g ai/ha
  pest or weed control at 500 g/ha: 0%
[14]; [17]
  pest or weed control at 125 g/ha: 0%
[14]; 500 g ai/ha
  pest or weed control at 500 g/ha: 0%
[15]; [17]
  pest or weed control at 125 g/ha: 0%
[15]; 500 g ai/ha
  pest or weed control at 500 g/ha: 30%
[16]; [17]
  pest or weed control at 125 g/ha: 0%
[16]; 500 g ai/ha
  pest or weed control at 500 g/ha: 0%
